Results published in a melting point compilation (Tetko et al.; mined from patent text by program, amines drawn as free bases though some values may be those of a salt).

Compound	melting point [°C]
CN(c1cccc2cc(-c3ncc(CCC#N)s3)[nH]c12)S(=O)(=O)c1cccs1	207 to 208
C[C@@H](O)c1nccc(N2CCC(=Cc3cccc(Cl)c3)CC2)n1	45 to 55
COC(=O)c1ccc2oc(=O)n(Cc3cccc(-c4ncc(OCCCN(C)C)cn4)c3)c2c1	125
Cn1nc(-c2ccc(S(C)(=O)=O)cc2)c(-c2ccc(F)cc2)c1OCC(=O)c1ccc(F)cc1	166 to 169
CCN(C)c1nc(-c2ccc(OC)cc2)nc2sc(C#N)c(C)c12	122 to 123
CCOC(=O)COn1c2c([nH]c(=O)c1=O)CCC1=C2C=C(n2ccc(CNC(=O)C(F)(F)F)c2)CC1	199
O=C(C(=O)N(CCN1CCOCC1)S(=O)(=O)C(F)(F)F)N(CCN1CCOCC1)S(=O)(=O)C(F)(F)F	62 to 64
COC1=NS(=O)(=O)N(C)C(Oc2ccc([N+](=O)[O-])cc2)=N1	220 to 221
CC(C)(C)c1ccc(CC(=O)O)c(Cc2ccc(CC(=O)O)cc2)c1	138 to 139
C=C(C)C(=O)NCCNC(=O)c1ccc2ccccc2c1O	167 to 169
O=C(O)CN(CC(=O)O)CC(=O)Nc1cc(C(F)(F)F)cc(C(F)(F)F)c1	201
O=c1c(Cl)coc2cc(OCCCCl)ccc12	101 to 103
CSc1ncc2cc(-c3c(Cl)cccc3Cl)c(=NC(C)=O)n(C)c2n1	229 to 231
CCOC(=O)c1nc2c(=O)[nH]c3cc(C(F)(F)F)ccc3n2c1CNCc1ccccc1	> 250
CCOC(=O)c1c(SCOC)nc2cc(F)c(F)cc2c1O	123 to 127
CCN(CC)c1ccc(S(=O)(=O)N2CCCC2=S)cc1	183 to 184
Cc1cc(N)ccc1-c1ccccc1CO	108 to 112
C#CC1(O)CCC2C3C(C)CC4=CC(=O)CCC4C3CCC21CC (stereo not given)	182 to 184
O=C1c2cc(F)ccc2S(=O)(=O)c2cc(C3=NCCN3)ccc21	248 to 249
CCC(=O)c1c(O)cccc1O	135 to 136
CCNc1nc2ccccc2s1	93
COc1ccc(C(=O)CSCc2ccncc2)cc1	64 to 65
O=c1ccc(C(c2ccccc2)c2ccccc2)c[nH]1	174 to 176
COC(C)=CC(=O)NC1CCC(C)CC1 (stereo not given)	125
Cc1cccc(C)c1N(CCCCCCc1cccnc1)C(=O)C(C)N1C(=O)c2ccccc2C1=O (stereo not given)	113 to 115

Compound	melting point [°C]
CCCc1cc(C(O)=S)cc([N+](=O)[O-])c1-c1ccccc1	178 to 180
CC(C)(C)c1cc(NC(=O)c2cncc3cc(Oc4cc(N)ncn4)ccc23)n(-c2ccc(F)cc2)n1	124 to 126
COc1ccc(-c2c(C(=O)O)c(CSc3nccn3C)nc3cc(OC)c(OC)cc23)cc1OC	213 to 214
CCN1c2ncccc2C(C#N)=Nc2c(C)cc(C)nc21	154 to 155
COC(=O)c1ccc(NC(=O)Nc2ccc(OC)c(C34CC5CC(CC(C5)C3)C4)c2)cc1	223 to 224
Nc1ncccc1-c1nc2cccnc2n1-c1ccc(CNC(=O)c2ccccc2)cc1	226 to 228
Nc1ccc2c(c1)CCN(Cc1ncn[nH]1)C2	191 to 193
Cc1c(Cl)ccc(-n2c(-c3ccccc3)cc(=O)c(C)c2-c2ccccc2)c1Cl	237 to 238
CC(=O)CCC1CCC2C(C=CC3=CCCc4c3n2c2ccncc42)C1 (stereo not given)	102
Cc1ccc(Cl)cc1NC(=S)n1c(C)cc2ccccc21	121 to 122
CCc1ccccc1CCC(=O)O	87 to 91
CCOC(=O)c1c(C)nn(-c2ccccn2)c1C	49 to 50
CCCN(c1ccccc1)C1CCN(CCOc2c(C)cccc2C)CC1	82
O=C(O)c1ccn2c1CSC2c1cccnc1 (single isomer, unassigned; (+))	154
C=CCC(C#N)(C#N)Cc1ccc(Cl)c(Cl)c1	71.8
COC(=O)c1nc(C)c(F)c(N)c1Cl	113 to 114
Oc1cccnc1C=NNc1ccc(F)cc1	223 to 225
C=C(C)c1cc(-c2ccc(OCCNC(N)=O)cc2)n(-c2ccc(OC)nc2)n1	94 to 98
CC(=O)c1ccc2c(=O)c(Br)c(C)oc2c1	124
O=C(Oc1ccc(OC(=O)c2cc(O)c(O)c(O)c2)c(-c2ccccc2)c1)c1cc(O)c(O)c(O)c1	114 to 116
Cc1cccc(NC(=O)c2cc(C#N)cc(C)n2)n1	244
CN1CC(CCCl)Oc2ccccc2C1=O (stereo not given)	97 to 107
O=C(O)c1cc(S(=O)(=O)NC2CCCCC2)cc2c1OCCO2	150
CCOc1c(Br)ccc(C(=O)OC)c1N(C)S(C)(=O)=O	82 to 88
COC(=O)c1ccc(C(=O)N(C)c2ccccc2)cc1	78 to 80

Compound	melting point [°C]
Nc1ncnc2c1c(CCCO)nn2Cc1oc2ccccc2c(=O)c1-c1ccccc1	182 to 184
O=C1COc2cc(NC(=O)C(=O)N3CCC(OCc4ccccc4)CC3)ccc2N1	232 to 236
Cc1cc2c(c(C(C)(C)C)c1)OC(=O)C2Cl (stereo not given)	81 to 86
CC(Cl)c1ccc(C(=O)c2cccs2)cc1 (stereo not given)	60
Nc1cc(Br)nc(CO)c1	144 to 145
CC(C)N1CCNC(=O)c2ccc(Nc3ncc(Cl)c(N[C@@H]4CCCC[C@H]4NS(C)(=O)=O)n3)cc21	189 to 191
CCCNc1ccc(NC(=O)c2ccc(NC(=O)c3ccc(NCCC)nc3)nc2)nc1	249 to 250
CCCn1c(=O)c2c(nc(C=O)n2C)n(CCC)c1=O	130
CC(=O)COc1cccnc1C(N)=O	135 to 140
O=C1CCC2=C(CCc3cc(Br)ccc32)N1	227 to 228
CCN1C(=O)C(Cl)(Cl)c2cc3sccc3cc21	143 to 144
Clc1ccc2nc(CN3CCc4ccccc4C3)[nH]c2c1	204 to 206
Cc1onc(NS(=O)(=O)c2ccccc2-c2ccc(-c3ncccn3)cc2CN2CCC(C)(C)C2=O)c1C	125 to 132
CC(NC(=O)c1cc(Cl)ccc1[N+](=O)[O-])C1CC1 (stereo not given)	137 to 141
COc1cc(C(=O)N2CCC(CCN3CCC(C(=O)c4nc5ccccc5n4Cc4ccc(F)cc4)CC3)(c3ccc(C(F)(F)F)cc3)C2)cc(OC)c1OC (stereo not given)	55 to 57
CS(=O)(=O)Nc1ccccc1SCc1ncon1	106
CCSc1nc2cccc(C(=O)O)c2n1Cc1ccc(-c2ccccc2-c2nc(=O)o[nH]2)cc1	146 to 148
CSc1cc(C)nc(SC)c1NC(=O)CCCCCCCSc1nc2c(C)c(Cl)cc(C(C)C)c2o1	128 to 131
COC(=O)c1nc(N=[N+]=[N-])ccc1OCc1ccccc1	88 to 89
Cc1cc(C(=O)N2CCCCC2)ccc1[N+](=O)[O-]	71.7 to 72.2
CCOC(=O)c1ccc2ncccc2c1	66 to 67
COc1ccc(CN2C(=O)c3ccccc3C2=O)cc1OC	160 to 161
Cn1c(C(F)(F)F)cc(=O)n(-c2cc(OS(=O)(=O)c3ccc(Cl)cc3)c(Cl)cc2F)c1=O	152 to 154
O=C(Nc1ccc(-n2nc(C(F)(F)F)cc2C(F)(F)F)cc1)c1c(F)c(F)cc(F)c1F	235 to 237
CCOC(=O)Cn1c2c([nH]c(=O)c1=O)CCC1=C2C=C(n2ccc(CN3CCN(C(c4ccccc4)c4ccccc4)CC3)c2)CC1	> 200

Compound	melting point [°C]
CN1C(=O)CN(c2ccc(OCc3ccccc3)cc2)NC1=O	224 to 227
Cc1ccc(C(=O)OCc2c3ccccc3cc3ccccc23)cc1	124
Cc1ccc(S(=O)C(C(=O)OC(C)(C)C)C(O)CC(OC2CCCCO2)c2ccc(Oc3ccccc3)cc2)cc1 (stereo not given)	140 to 145
Cc1cc(C(C)(C)O)ccc1-c1ccccc1	60 to 64
COc1ccc(OC(C)(C)C(=O)O)cc1OCCCc1cn(-c2ccc(C(F)(F)F)cn2)nc1C(C)C	106 to 107
O=S1(=O)CCCc2[nH]c3ccccc3c2CC1	207 to 208
COc1ccc(C2(C#N)CCC(C(=O)O)CC2)c2c1oc1ccccc12 (stereo not given)	194 to 196
CC(C)OC(=O)Nc1ccc(NC=O)c([N+](=O)[O-])c1	168 to 170
Cc1nc2c(O)c(CCC(=O)c3ccccc3)c(C(=O)N3CCC3)cc2n1C	242 to 243
COc1cc(OC)nc(C(=O)c2cccc(Cl)c2C(=O)N(C)C)n1	141 to 142
CCn1ncnc1COc1nn2c(-c3cc(F)ccc3F)nncc2c1C(C)(C)C	108
CN(C)CC(O)C(c1ccccc1)c1ccccc1 (stereo not given)	72 to 73
CC(C)=CCN(c1ccc(OCc2ccccc2)cc1)C1CCN(C(=O)C2CN(C)CCN2CCC(C)C)CC1 (stereo not given)	85 to 86
CC(C)=CCOc1c(-c2ccc(S(C)(=O)=O)cc2)cnn(-c2cccc(Cl)c2)c1=O	113 to 115
Cn1nnnc1SCc1c(S(C)(=O)=O)ccc(C(=O)C2=C(Sc3ccccc3)CCCC2=O)c1Cl	76 to 87
Fc1ccc(Cn2cnc3ccccc32)cc1	60 to 62
CC(C)(C)C(=O)Nc1nc(CC(=O)Nc2cccc(C(F)(F)F)c2)cs1	147 to 152
Cn1cc([C@H]2CC[C@@H](N3CCN(c4cc(C(=O)O)cc5cccnc45)CC3)CC2)c2cc(C#N)ccc21	230
CC(C)(C)OC(=O)NCc1nnc(S)s1	144 to 146
CC1C(=O)CSCC1=O	131 to 133
CNC(C)=C(C#N)C(=O)c1ccc(Cl)cc1	152
C=Cc1cc(C(C)NC(=O)C#Cc2ccc(C(C)(C)C)cc2)cc(F)c1NS(C)(=O)=O (stereo not given)	108 to 110
Nc1nc2c(s1)CC(CCN1CCN(c3ccccn3)CC1)CC2 (stereo not given)	176 to 190
COc1cc2c(c(C(C)C)c1OC)C(=O)NS2(=O)=O	186 to 188
COc1ccc(-c2nnc(Cl)cc2C)cc1	132
